Source: paper PMC9697446 (International Journal of Molecular Sciences, 2022)
Where two headings read alike, the source gives them in different places.

What was measured:
EeAChE = biological target: T1, EeAChE (Electrophorus electricus, UniProt O42275); test: biochemical; settings: means ± SEM (n = 3); read-out: EeAChE Inhibition, IC50
T1 construct: purchased Sigma-Aldrich type VI-S
Description: We selected AChE from electric eels (Electrophorus electricus) for consistency with our other reports and because of its purity, specific activity, and lower cost compared to human AChE [64].
(§1) AChE and BChE activities were measured via the Ellman method. The assay solution consisted of 0.1 M K/Na phosphate buffer pH 7.5, 25 °C with the addition of 0.33 mM DTNB, 0.02 unit/mL of AChE or BChE and 1 mM of substrate (ATCh or BTCh, respectively). The assays were carried out with a reagent blank containing all components (except AChE orBChE) in order to account for the non-enzymatic hydrolysis of the substrate. In addition, an enzyme blank was included that contained all components except substrate to account for non-substrate sulfhydryl groups.
(§2) The test compounds were dissolved in DMSO, and the incubation mixture contained 2% (v/v) of the solvent. Enzyme inhibition was first assessed at a single concentration of 20 µM for each compound after a 5 min incubation at 25 °C in three separate experiments. […] The test compounds were added to the assay solution and preincubated at 25 °C with the enzymes for 5 min, followed by the addition of substrate. A parallel control was made for the assay solution with no inhibitor. Measurements were performed with a FLUOStar Optima microplate reader (BMG Labtech, Ortenberg, Germany). Each experiment was performed in triplicate. The results were expressed as the mean ± SEM. The reaction rates in the presence and absence of the inhibitor were compared, and the percent of residual enzyme activity due to the presence of test compounds was calculated.
(§3) PIand donepezil were purchased from Sigma-Aldrich. […] As the source of the enzyme, electric eel (Elecrophorus electricus) AChE (EeAChE, type VI-S, lyophilized powder, Sigma-Aldrich, Saint Louis, MO, USA) was used. The applicability of this enzyme was shown earlier

EeAChE PAS = biological target: T2, EeAChE PAS (Electrophorus electricus, UniProt O42275); test: biochemical; type: binding; settings: for inhibition at 3 µM: read-out: PI Displacement, 3 µM; for inhibition at 20 µM: read-out: PI Displacement, 20 µM
T2 construct: purchased Sigma-Aldrich type VI-S
Description: as §3
To determine the percentage of displacement of PI from the EeAChE PAS, EeAChE (with a final concentration of 7 μM) was incubated with the test compound at a concentration of 3 and 20 μM in 1 mM Tris-HCl buffer pH 8.0, 25 °C for 15 min. Next, PIsolution (with a final concentration of 8 μM) was added, the samples were incubated for 15 min, and the fluorescence spectrum (530 nm (exc.) and 600 nm (emiss.)) was taken. Donepezil and decamethonium were used as reference compounds. The blank contained PI of the same concentration in 1 mM Tris-HCl buffer pH 8.0. The measurements were carried out in triplicate on a FLUOStar Optima microplate reader).
The percentage of displacement of PIfrom the peripheral anionic site of AChE was calculated using the following formula:% Displacement = 100 − (IFAChE+Propidium+inhibitor/IFAChE+Propidium) × 100,(1) where IFAChE+Propidium is the fluorescence intensity of the propidium associated with AChE in the absence of the test compound (taken as 100%) and IFAChE+Propidium+inhibitor is the fluorescence intensity of the propidium associated with AChE in the presence of the test compound.

human erythrocyte AChE = biological target: T3, human erythrocyte AChE (Homo sapiens, UniProt P22303); test: biochemical; settings: IC50 ± SEM, n = 3
T3 construct: The esterase profile was estimated using the human erythrocyteAChE; purchased Sigma-Aldrich; host or cells: human erythrocytes
Description: (§4) The esterase profile was estimated using the human erythrocyteAChE, the equine serum BChE, and the porcine liver CES.
(§5) Human erythrocyte AChE, equine serum BChE, porcine liver CES, acetylthiocholine iodide (ATCh), butyrylthiocholine iodide (BTCh), 5,5′-dithio-bis-(2-nitrobenzoic acid) (DTNB), 4-nitrophenol acetate (4-NPA), and BNPP were purchased from Sigma-Aldrich (St. Louis, MO, USA).
as §1, §2

equine serum BChE = biological target: T4, equine serum BChE (Equus caballus, UniProt P81908); test: biochemical; settings: n = 3; for IC50: IC50 ± SEM
T4 construct: the equine serum BChE, and the porcine liver CES; purchased Sigma-Aldrich; host or cells: equine serum
Description: as §4, §5, §1, §2

porcine liver CES = test: CES inhibition (4-nitrophenyl acetate hydrolysis); type: biochemical; settings: ± SEM, n = 3;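 also: values are percent inhibition of CES activity not residual activity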
Description: as §4, §5
The assay solution consisted of 0.1 M K/Na phosphate buffer pH 8.0, 25 °C, with the addition of 1 mM 4-nitrophenyl acetate and 0.02 unit/mL of CES. The assays were carried out with a blank containing all components, except CES.
as §2

tubulin = biological target: T5, tubulin (Sus scrofa, UniProt P02550+P02554); test: Tubulin polymerization (microtubule assembly); type: biochemical; settings: for Tubulin polymerization rate, % of control at 100 µM: read-out: Tubulin polymerization rate (dA355/dt), % Control; for Increase in the rate of tubulin polymerization: 100 µM
T5 construct: purchased Cytoskeleton, Inc. HTS-Tubulin polymerization assay kit
Description: The assembly of tubulin into microtubules was carried out using pure tubulin from an HTS-Tubulin polymerization assay kit (Cytoskeleton, Inc., Denver, CO, USA). A standard polymerization reaction used 100 μL of 4 mg/mL tubulin in 80 mM PIPES (pH 6.9), 0.5 mM EGTA, 2 mM MgCl2, and 1 mM GTP. Polymerization was monitored by recording the change in absorbance on a Wallac Victor 3 1420 Multilabel Counter (Perkin Elmer, Turku, Finland) at λ = 3 55 nm. Electron microscopic monitoring was carried out with a Carl Zeiss Libra 120 electron microscope (Carl Zeiss Meditec AG, Jena, Germany) at 120 kV using negative contrasting.

[1] = system: isolated rat liver mitochondria; test: Bypass of rotenone (complex I) inhibition, mitochondrial repolarization; type: biochemical; settings: mitochondria energized by glutamate/malate, rotenone added
Description: The ability to bypass complex I inhibition was determined for MB, its reduced form MBH2, and compound 4i (Figure 4).
The addition of rotenone to mitochondria energized by complex I substrates (glutamate/malate) causes considerable depolarization.
Safranine O (10 µM) was used as a membrane potential probe. Fluorescence intensity at 580 nm (excitation at 520 nm) was measured with a Wallac Victor 3 1420 Multilabel Counter (Perkin Elmer, Turku, Finland). The mitochondrial protein concentration was 0.2 mg/mL. The medium for measurements contained 75 mM sucrose, 225 mM mannitol, 10 mM K-HEPES (pH 7.4), 0.02 mM EGTA, and 1 mM KH2PO4. After a 5-min incubation, 5 mM glutamate/malate or 5 mM succinate in the presence of 0.5 µM rotenone were added to produce the mitochondrial potential. Then, the compounds (30 µM) or the same volume of the vehicle (DMSO) were injected into the mitochondrial suspension. After 15–20 min, 12.5 µM CaCl2 was added to each sample to induce the depolarization of mitochondria, and after 5 min, 0.5 µM CCCP was added for maximum depolarization of the mitochondria. The level of depolarization (ΔΨm) was calculated using the fluorescence value after 10-min incubation with 30 µM of compounds (or vehicle) normalized between the fluorescence measurements after substrate and CCCP addition, where fluorescence intensity at 580 nm was 100% after substrate addition and was 0% after CCCP addition.

[2] = compound 3 µM, EeAChE 7 µM, PI 8 µM, means ± SEM (n = 3)
[3] = compound 20 µM, EeAChE 7 µM, PI 8 µM, means ± SEM (n = 3)
[4] = 100 µM compound, means ± SEM (n = 6)

T3 sequence (P22303 32-617 isoform P22303-2 limits assumed): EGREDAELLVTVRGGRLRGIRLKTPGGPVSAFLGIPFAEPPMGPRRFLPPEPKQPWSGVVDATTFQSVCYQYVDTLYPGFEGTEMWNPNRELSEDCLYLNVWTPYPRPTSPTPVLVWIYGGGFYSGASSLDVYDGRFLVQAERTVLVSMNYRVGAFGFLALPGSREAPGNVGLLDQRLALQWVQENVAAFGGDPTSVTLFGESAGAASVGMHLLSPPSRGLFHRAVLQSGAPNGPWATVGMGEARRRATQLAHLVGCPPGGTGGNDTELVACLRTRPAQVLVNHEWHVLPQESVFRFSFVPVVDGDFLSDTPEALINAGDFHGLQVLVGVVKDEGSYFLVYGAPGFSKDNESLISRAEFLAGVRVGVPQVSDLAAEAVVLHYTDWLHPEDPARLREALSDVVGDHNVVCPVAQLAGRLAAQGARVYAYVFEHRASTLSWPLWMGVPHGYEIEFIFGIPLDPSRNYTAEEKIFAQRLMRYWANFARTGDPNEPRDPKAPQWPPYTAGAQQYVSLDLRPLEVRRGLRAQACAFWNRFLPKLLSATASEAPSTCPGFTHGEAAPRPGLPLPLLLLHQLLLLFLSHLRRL
T2 sequence (O42275 24-633): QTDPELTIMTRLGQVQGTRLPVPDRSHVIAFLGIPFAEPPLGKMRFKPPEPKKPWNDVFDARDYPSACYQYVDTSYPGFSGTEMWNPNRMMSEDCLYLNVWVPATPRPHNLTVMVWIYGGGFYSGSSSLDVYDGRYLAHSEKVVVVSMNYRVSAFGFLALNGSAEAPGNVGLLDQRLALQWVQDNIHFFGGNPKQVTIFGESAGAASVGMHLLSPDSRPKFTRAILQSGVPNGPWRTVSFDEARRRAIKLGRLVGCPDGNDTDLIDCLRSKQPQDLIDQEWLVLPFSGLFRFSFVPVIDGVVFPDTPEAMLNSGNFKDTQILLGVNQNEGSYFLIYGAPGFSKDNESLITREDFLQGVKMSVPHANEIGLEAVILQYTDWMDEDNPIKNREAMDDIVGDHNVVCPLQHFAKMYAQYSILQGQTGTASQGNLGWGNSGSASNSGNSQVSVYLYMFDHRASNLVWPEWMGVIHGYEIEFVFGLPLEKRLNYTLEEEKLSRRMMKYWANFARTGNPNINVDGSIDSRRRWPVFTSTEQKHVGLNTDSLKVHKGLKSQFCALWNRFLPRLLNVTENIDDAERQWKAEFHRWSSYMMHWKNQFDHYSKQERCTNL
T1 sequence (O42275 24-633): as above
T4 sequence (P81908 whole entry): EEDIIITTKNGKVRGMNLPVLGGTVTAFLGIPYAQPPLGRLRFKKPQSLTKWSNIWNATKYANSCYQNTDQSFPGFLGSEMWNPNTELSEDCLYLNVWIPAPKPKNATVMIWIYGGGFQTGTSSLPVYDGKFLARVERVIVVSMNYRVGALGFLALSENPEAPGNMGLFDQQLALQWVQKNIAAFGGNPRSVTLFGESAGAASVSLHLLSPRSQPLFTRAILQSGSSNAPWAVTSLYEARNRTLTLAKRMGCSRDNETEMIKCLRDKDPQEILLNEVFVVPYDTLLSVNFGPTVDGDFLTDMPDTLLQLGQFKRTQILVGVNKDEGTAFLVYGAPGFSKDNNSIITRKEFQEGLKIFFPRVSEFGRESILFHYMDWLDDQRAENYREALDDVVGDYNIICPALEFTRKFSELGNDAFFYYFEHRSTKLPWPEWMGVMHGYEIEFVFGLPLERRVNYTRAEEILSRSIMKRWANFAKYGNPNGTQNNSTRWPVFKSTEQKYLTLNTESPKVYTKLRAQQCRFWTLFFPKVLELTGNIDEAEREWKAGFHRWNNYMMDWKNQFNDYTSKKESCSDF
T5 sequence (P02550 whole entry): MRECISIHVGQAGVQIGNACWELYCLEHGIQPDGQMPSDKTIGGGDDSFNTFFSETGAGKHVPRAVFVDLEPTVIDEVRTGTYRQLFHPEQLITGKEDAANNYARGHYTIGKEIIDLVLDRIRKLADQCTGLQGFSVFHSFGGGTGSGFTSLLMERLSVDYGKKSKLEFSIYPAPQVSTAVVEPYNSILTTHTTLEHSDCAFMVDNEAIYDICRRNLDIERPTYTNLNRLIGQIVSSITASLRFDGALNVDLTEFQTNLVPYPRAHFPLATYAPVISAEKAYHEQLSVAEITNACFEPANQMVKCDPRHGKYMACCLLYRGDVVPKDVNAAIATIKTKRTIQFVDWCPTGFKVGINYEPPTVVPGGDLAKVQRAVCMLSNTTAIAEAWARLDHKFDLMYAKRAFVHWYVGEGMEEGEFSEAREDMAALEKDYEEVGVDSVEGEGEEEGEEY
T5 sequence (P02554 whole entry): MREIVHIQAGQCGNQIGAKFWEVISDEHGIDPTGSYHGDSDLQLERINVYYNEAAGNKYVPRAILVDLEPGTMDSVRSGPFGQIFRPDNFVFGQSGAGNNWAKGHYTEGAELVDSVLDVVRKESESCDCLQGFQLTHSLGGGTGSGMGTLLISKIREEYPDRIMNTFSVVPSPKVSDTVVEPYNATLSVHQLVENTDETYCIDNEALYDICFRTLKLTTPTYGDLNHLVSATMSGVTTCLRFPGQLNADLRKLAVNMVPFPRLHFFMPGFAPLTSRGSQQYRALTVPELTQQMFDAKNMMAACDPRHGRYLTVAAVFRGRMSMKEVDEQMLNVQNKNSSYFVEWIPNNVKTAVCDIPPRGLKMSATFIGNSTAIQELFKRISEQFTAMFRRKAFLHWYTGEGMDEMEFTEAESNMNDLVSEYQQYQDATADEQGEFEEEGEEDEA

| Structure (SMILES) | IC50 (EeAChE) | inhibition at 3 µM (EeAChE PAS; [2]) | inhibition at 20 µM (EeAChE PAS; [3]) | IC50 (human erythrocyte AChE) | IC50 (equine serum BChE) | CES inhibition at 20 µM (porcine liver CES) | inhibition at 20 µM (equine serum BChE; 20 µM, ± SEM) | Structure of microtubules formed (electron microscopy) (tubulin) | Tubulin polymerization rate, % of control at 100 µM (tubulin; [4]) | Repolarization of rotenone-depolarized mitochondria (bypass of complex I inhibition) [1] | Increase in the rate of tubulin polymerization (tubulin) | inhibition at 3 µM (EeAChE PAS) | inhibition at 20 µM (EeAChE PAS) | Tubulin polymerization rate (dA355/dt), % Control (tubulin; [4]) | PI Displacement, 3 µM (EeAChE PAS; [2]) | PI Displacement, 20 µM (EeAChE PAS; [3]) |
| --- | --- | --- | --- | --- | --- | --- | --- | --- | --- | --- | --- | --- | --- | --- | --- | --- |
| CN(C)c1ccc2c(c1)Sc1cc(N(C)C)ccc1N2C(=O)CCn1c2c(c3ccccc31)CCC2 [Compound 4a] | 2.35 ± 0.23 µM | 12 ± 0.5% | 20.9 ± 0.8% | 11.1 ± 0.69 µM | 42.13 ± 0.41 µM | 19.4 ± 1.8% |  |  |  |  |  |  |  |  |  |  |
| CN(C)c1ccc2c(c1)Sc1cc(N(C)C)ccc1N2C(=O)CCn1c2c(c3ccccc31)CCCC2 [Compound 4b] | 2.42 ± 0.18 µM | 12.6 ± 0.7% | 27.9 ± 1.1% | 12.3 ± 1.51 µM | 48.7 ± 2.09 µM | 22.6 ± 2.1% |  |  |  |  |  |  |  |  |  |  |
| Cc1ccc2c(c1)c1c(n2CCC(=O)N2c3ccc(N(C)C)cc3Sc3cc(N(C)C)ccc32)CCCC1 [Compound 4c] | 1.22 ± 0.01 µM | 14.9 ± 1.1% | 31.8 ± 0.9% | 4.39 ± 0.26 µM | 41.4 ± 1.71 µM | 14.9 ± 1.3% |  |  |  |  |  |  |  |  |  |  |
| COc1ccc2c(c1)c1c(n2CCC(=O)N2c3ccc(N(C)C)cc3Sc3cc(N(C)C)ccc32)CCCC1 [Compound 4d] | 2.25 ± 0.07 µM | 13.4 ± 0.9% | 28 ± 1.5% | 10.5 ± 0.89 µM | 52.1 ± 2.7 µM | 17.3 ± 1.5% |  |  |  |  |  |  |  |  |  |  |
| COc1ccc2c(c1)c1c(n2CCC(=O)N2c3ccc(N(C)C)cc3Sc3cc(N(C)C)ccc32)CCC(C)C1 (stereo not shown) [Compound 4e] | 1.92 ± 0.14 µM | 14.8 ± 0.7% | 23 ± 1.3% | 9.81 ± 0.18 µM |  | 15.0 ± 1.3% | 22.9 ± 2% |  |  |  |  |  |  |  |  |  |
| CN(C)c1ccc2c(c1)Sc1cc(N(C)C)ccc1N2C(=O)CCn1c2c(c3cc(F)ccc31)CCCC2 [Compound 4f] | 1.11 ± 0.12 µM | 14.4 ± 0.8% | 31.9 ± 1.4% | 6.57 ± 0.57 µM | 18.4 ± 1.52 µM | 6.6 ± 0.7% |  |  |  |  |  |  |  |  |  |  |
| CN(C)c1ccc2c(c1)Sc1cc(N(C)C)ccc1N2C(=O)CCn1c2c(c3cc(OC(F)(F)F)ccc31)CCCC2 [Compound 4h] | 0.89 ± 0.09 µM | 19.1 ± 1.1% | 33.8 ± 0.4% | 6.89 ± 0.09 µM | 47.6 ± 4.59 µM | 3.1 ± 0.5% |  | straight, long microtubules with a normal structure | 179 ± 27% |  |  |  |  |  |  |  |
| CC1CCc2c(c3cc(OC(F)(F)F)ccc3n2CCC(=O)N2c3ccc(N(C)C)cc3Sc3cc(N(C)C)ccc32)C1 (stereo not shown) [Compound 4i] | 0.41 ± 0.03 µM | 20.4 ± 1.8% | 32.5 ± 0.5% | 1.94 ± 0.09 µM | 6.07 ± 0.58 µM | 3.5 ± 0.4% |  | straight, long microtubules with a normal structure | 207 ± 5% | exhibits this type of activity only in a 10 µM concentration |  |  |  |  |  |  |
| CN(C)c1ccc2c(c1)Sc1cc(N(C)C)ccc1N2C(=O)CCn1c2c(c3ccccc31)CCCCC2 [Compound 4j] | 2.7 ± 0.09 µM | 10.3 ± 0.9% | 23.8 ± 1.1% | 10.7 ± 0.67 µM | 9.98 ± 0.86 µM | 11.3 ± 1.2% |  |  |  |  |  |  |  |  |  |  |
| Cc1ccc2c(c1)c1c(n2CCC(=O)N2c3ccc(N(C)C)cc3Sc3cc(N(C)C)ccc32)CCCCC1 [Compound 4k] | 4.12 ± 0.37 µM | 12.1 ± 0.8% | 15.8 ± 0.7% | 12.9 ± 0.53 µM | 22.2 ± 0.92 µM | 5.3 ± 0.6% |  |  |  |  |  |  |  |  |  |  |
| CN(C)c1ccc2c(c1)Sc1cc(N(C)C)ccc1N2C(=O)CCn1c2c(c3ccccc31)CCCCCC2 [Compound 4m] | 0.57 ± 0.02 µM | 17.3 ± 1.2% | 37.4 ± 0.8% | 2.98 ± 0.1 µM | 21.7 ± 0.51 µM | 13.0 ± 1.1% |  |  |  |  |  |  |  |  |  |  |
| Cc1ccc2c(c1)c1c(n2CCC(=O)N2c3ccc(N(C)C)cc3Sc3cc(N(C)C)ccc32)CCCCCC1 [Compound 4n] | 0.95 ± 0.07 µM | 16.7 ± 1.2% | 28.3 ± 1.2% | 6.26 ± 0.01 µM | 15.6 ± 1.13 µM | 33.1 ± 3.1% |  |  |  |  |  |  |  |  |  |  |
| CN(C)c1ccc2nc3ccc(=[N+](C)C)cc-3sc2c1 [MB, Methylene blue, reference compound] |  |  |  |  | 11.1 ± 0.12 µM | 12.3 ± 1.5% |  | straight, long microtubules with a normal structure | 168 ± 17% | concentration-dependent repolarization | more than 1.5 fold | 20.9 ± 1.9% | 40.8 ± 3.7% |  |  |  |
| CN(C)c1ccc2c(c1)Sc1cc(N(C)C)ccc1N2 [MBH2, reference compound] | 0.28 ± 0.02 µM |  |  | 1.76 ± 0.09 µM | 10.1 ± 0.16 µM | 17.2 ± 1.8% |  |  |  | concentration-dependent repolarization | more than 1.5 fold |  |  | 178 ± 11 % Control | 17.7 ± 1.8% | 36.9 ± 3.3% |
